Patent publication US20240166643A1, “IMIDAZO[1,2-A]PYRIDINE COMPOUNDS AND THEIR USE IN THERAPY” (Imperial College Innovations Limited, priority 2020, published 2024)
Like-named read-outs stand apart in the source and are kept apart here.

Columns and labels:
[1] = target: Plasmodium vivax (Pv) NMT (Plasmodium vivax (strain Salvador I), UniProt A5K1A2); assay: biochemical
[2] = test system: Plasmodium falciparum strain NF54; assay: SYBR Green assay, Plasmodium falciparum strain NF54; conditions: NF54, read-out: Pf EC50 strain NF54
Human NMT1 (HsNMT1) = Human NMT1 (HsNMT1) (Homo sapiens, UniProt P30419); assay: biochemical
BL-41 cells = assay: Metabolic activity assay (MTS assay) in BL-41 cell line; assay type: cell-based; conditions: Homo sapiens, 72 h
in vitro = conditions: male, Sprague-Dawley, rat, pooled cryopreserved rat hepatocytes, pH 7.4
[3] = test system: Plasmodium falciparum 3D7; assay: SYBR Green assay, Plasmodium falciparum strain 3D7; assay type: cell-based; conditions: P. falciparum strain 3D7, 96 h incubation, read-out: Pf EC50 strain 3D7
[4] = Rat clearance and bioavailability (iv and oral dosing); assay type: in vivo; conditions: male, Sprague-Dawley, plasma; for half-life: read-out: Rat iv t1/2 (converted)
SU-DHL-10 cells = assay: Cell cytotoxicity in SU-DHL-10 cell line (CellTiter-Glo); assay type: cell-based; conditions: Homo sapiens, SU-DHL10; CellTiter-Glo, 48 h; read-out: SU-DHL-10 EC50
Experimental: Assay (c): Cell Cytotoxicity in SU-DHL-10 Cell Line
Cell Culture: SU-DHL-10 (ATCC CRL-2963) were cultured in RPMI-media (ATCC, 30-2001).
Cultures were maintained by the addition of fresh medium and inoculum of 8.0×10^4 to 2.0×10^5 cells/mL. Subculturing was done when the cell density was between 1.0×10^6 and 2.0×10^6 cells/mL.
Cell seeding: 5000 cells/well were plated in 384-white clear bottom plates (Greiner, 781098) for the assay in 20 μl growth media.
Top dose: 1 mM stocks of each compound was prepared in 100% DMSO and thereafter diluted 333.33 fold in growth media to obtain 3 μM (0.3% DMSO) mid stock of each compound, from which 10 μl was added to assay wells (with 20 μl cells) for a final concentration of 1 μM (0.1% DMSO). For subsequent dose-response: 1 mM stock was diluted 3 fold in DMSO before subjecting to above dilution pattern to obtain final 0.1% DMSO concentration.
Treatment: Cells were incubated with the compounds for 48 h at 37° C. in presence of 5% CO2.
Assay Procedure: The assay plate and its contents were equilibrated at room temperature for approximately 30 minutes. CellTiter-Glo® Reagent was added equal to the volume (1;1) of cell culture medium present in each well. The contents were mixed for 5 minutes on an orbital shaker to induce cell lysis. The plate was allowed to incubate at room temperature for 10 minutes to stabilize luminescent signal. The luminescence was recorded with an integration time of 0.25 seconds in EnVision 2104 Multilabel Plate Reader (Perkin Elmer).
Calculation: % Cytotoxicity was calculated considering 100% cell death in wells treated with 0.1% TritonX.

[5] = iv 3 mg/kg, administered as a single compound
[6] = oral 30 mg/kg, administered as a single compound
[7] = iv 1 mg/kg, cassette dosing of 4 compounds
[8] = oral 5 mg/kg, cassette dosing of 4 compounds

Chain of Plasmodium vivax (Pv) NMT (A5K1A2 1-410): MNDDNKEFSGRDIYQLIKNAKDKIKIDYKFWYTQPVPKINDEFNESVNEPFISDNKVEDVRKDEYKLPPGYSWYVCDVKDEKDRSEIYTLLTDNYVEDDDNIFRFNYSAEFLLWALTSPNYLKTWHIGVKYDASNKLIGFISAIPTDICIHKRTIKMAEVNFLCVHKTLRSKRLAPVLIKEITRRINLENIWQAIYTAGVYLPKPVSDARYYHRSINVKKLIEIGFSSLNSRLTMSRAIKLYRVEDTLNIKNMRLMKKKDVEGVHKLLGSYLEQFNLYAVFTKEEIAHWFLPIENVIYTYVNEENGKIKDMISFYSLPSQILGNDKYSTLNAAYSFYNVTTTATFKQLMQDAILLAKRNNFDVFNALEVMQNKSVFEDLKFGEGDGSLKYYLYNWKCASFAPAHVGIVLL
Chain of Human NMT1 (HsNMT1) (P30419 whole entry, looked up): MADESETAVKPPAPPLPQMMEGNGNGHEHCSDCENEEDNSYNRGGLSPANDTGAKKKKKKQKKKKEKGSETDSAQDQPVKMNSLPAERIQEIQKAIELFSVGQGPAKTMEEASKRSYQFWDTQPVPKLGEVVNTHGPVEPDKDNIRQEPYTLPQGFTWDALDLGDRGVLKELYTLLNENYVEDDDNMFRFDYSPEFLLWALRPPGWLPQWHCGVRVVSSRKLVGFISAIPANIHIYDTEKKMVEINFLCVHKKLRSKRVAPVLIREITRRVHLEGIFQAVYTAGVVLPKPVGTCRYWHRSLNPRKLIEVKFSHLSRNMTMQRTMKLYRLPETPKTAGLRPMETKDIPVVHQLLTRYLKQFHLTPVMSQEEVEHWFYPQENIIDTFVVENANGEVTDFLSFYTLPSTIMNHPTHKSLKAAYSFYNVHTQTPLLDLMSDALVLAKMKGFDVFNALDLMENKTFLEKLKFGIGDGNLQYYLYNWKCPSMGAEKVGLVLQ

Row | SMILES | IC50 [1] [nM] | EC50 [2] [nM] | IC50 (Human NMT1 (HsNMT1)) [nM] | also measured
1 | O=C(NCc1cnc2ccccn12)C1CN(c2nc(N3CCCNCC3)ncc2F)C1 [Example 6] | 130 | > 10000 | – | –
2 | O=C(NCc1cnc2ccccn12)C1CN(c2nc(N3CC4CNC4C3)ncc2Cl)C1 (stereo not drawn) [Example 7] | 40 | 3200 | 110 | –
3 | O=C(NCc1cnc2ccccn12)C1CN(c2nc(N3CC4CNC4C3)ncc2F)C1 (stereo not drawn) [Example 8] | 470 | > 10000 | 1020 | –
4 | CC(NC(=O)C1CN(c2nc(N3CCCNCC3)ncc2F)C1)c1cnc2ccccn12 (stereo not drawn) [Example 9] | 41 | 2100 | 79 | –
5 | CC(NC(=O)C1CN(c2nc(N3CCCNCC3)ncc2Cl)C1)c1cnc2ccccn12 (stereo not drawn) [Example 10] | 6.3 | – | 7.9 | EC50 (BL-41 cells): 240 nM; half-life at 1 µM (in vitro): 2.03 h; EC50 [3]: 510 nM
6 | CC(C)(NC(=O)C1CN(c2nc(N3CCCNCC3)ncc2F)C1)c1cnc2ccccn12 [Example 11] | 14 | – | – | half-life [4, 5]: 4.4 h; bioavailability [4, 6]: 0.35%; EC50 (BL-41 cells): 890 nM; EC50 [3]: 51 nM
7 | Cc1nc2ccccn2c1CNC(=O)C1CN(c2nc(N3CCCNCC3)ncc2F)C1 [Example 12] | 200 | > 2500 | 130 | –
8 | Cc1nc2ccccn2c1CNC(=O)C1CN(c2nc(N3CC4CNC4C3)ncc2F)C1 (stereo not drawn) [Example 13] | 660 | > 10000 | 380 | –
9 | O=C(NCc1cnc2ccccn12)C1CN(c2nc(N3CCNCC3)ncc2F)C1 [Example 16] | 68 | > 5000 | – | half-life [4, 5]: 5.9 h; bioavailability [4, 6]: 0.5%; half-life at 1 µM (in vitro): > 6.25 h
10 | CN(Cc1cnc2ccccn12)C(=O)C1CN(c2nc(N3CCCNCC3)ncc2Cl)C1 [Example 17] | 140 | > 5000 | 360 | –
11 | Cc1nc2ccccn2c1CNC(=O)C1CN(c2nc(N3CCCNCC3)ncc2Cl)C1 [Example 18] | 8.8 | 2700 | 20 | –
12 | COc1cnc(N2CCCNCC2)nc1N1CC(C(=O)NCc2cnc3ccccn23)C1 [Example 19] | 59 | 3600 | – | –
13 | COc1cnc(N2CCCNCC2)nc1N1CC(C(=O)NC(C)(C)c2cnc3ccccn23)C1 [Example 20] | 16 | – | 16 | EC50 (BL-41 cells): 1160 nM; EC50 [3]: 150 nM
14 | O=C(NCc1cnc2cc(Cl)ccn12)C1CN(c2nc(N3CCCNCC3)ncc2Cl)C1 [Example 22] | 3.8 | 450 | – | –
15 | COc1cnc(N2CCCNCC2)nc1N1CC(C(=O)NC(C)c2c(C)nc3ccccn23)C1 (stereo not drawn) [Example 23] | 30 | 340 | 27 | –
16 | Cc1nc2ccccn2c1C(C)NC(=O)C1CN(c2nc(N3CCCNCC3)ncc2Cl)C1 (stereo not drawn) [Example 24] | 12 | 180 | 6.3 | –

Row | SMILES | IC50 [1] [nM] | EC50 [2] [nM] | IC50 (Human NMT1 (HsNMT1)) [nM] | also measured
17 | O=C(NCc1cnc2ccccn12)C1CN(c2nc(N3CCNCC3)ncc2Cl)C1 [Example 25] | 15 | 1090 | – | –
18 | C[C@H]1CN(c2ncc(F)c(N3CC(C(=O)NCc4cnc5ccccn45)C3)n2)CCN1 [Example 26] | 240 | > 2330 | – | –
19 | C[C@H]1CN(c2ncc(Cl)c(N3CC(C(=O)NCc4cnc5ccccn45)C3)n2)CCN1 [Example 27] | 37 | 2820 | – | –
20 | CC1CN(c2ncc(F)c(N3CC(C(=O)NCc4cnc5ccccn45)C3)n2)CCN1 (stereo not drawn) [Example 28] | 95 | 3040 | – | –
21 | CC(NC(=O)C1CN(c2nc(N3CCNCC3)ncc2F)C1)c1cnc2ccccn12 (stereo not drawn) [Example 31] | 19 | 1300 | 180 | –
22 | COc1cnc(N2CCN[C@H](C)C2)nc1N1CC(C(=O)NC(C)(C)c2cnc3ccccn23)C1 [Example 36] | 6.2 | 12 | – | –
23 | COc1cnc(N2CCN[C@@H](C)C2)nc1N1CC(C(=O)NC(C)(C)c2cnc3ccccn23)C1 [Example 39] | 12 | 85 | – | –
24 | CN(c1ncc(Cl)c(N2CC(C(=O)NC(C)(C)c3cnc4ccccn34)C2)n1)C1CCNC1 (stereo not drawn) [Example 41] | 7.2 | 45 | 19 | –
25 | CC(C)(NC(=O)C1CN(c2nc(N3CCCNCC3)ncc2Cl)C1)c1cnc2ccccn12 [Example 51] | 5.3 | – | – | half-life [4, 5]: 9.1 h; bioavailability [4, 6]: 0.07%; EC50 (BL-41 cells): 80 nM; EC50 [3]: 28 nM
26 | CN1CCCN(c2ncc(F)c(N3CC(C(=O)NCc4cnc5ccccn45)C3)n2)CC1 [Example 52] | 47 | > 10000 | – | –
27 | CN1CCCN(c2ncc(Cl)c(N3CC(C(=O)NCc4cnc5ccccn45)C3)n2)CC1 [Example 53] | 5.8 | 260 | – | half-life at 1 µM (in vitro): 0.4 h
28 | CN1CCN(c2ncc(F)c(N3CC(C(=O)NC(C)(C)c4cnc5ccccn45)C3)n2)CC1 [Example 54] | 6.2 | – | – | half-life [4, 7]: 3.5 h; bioavailability [4, 8]: 33%; EC50 (BL-41 cells): 2310 nM; half-life at 1 µM (in vitro): > 3 h; EC50 [3]: 160 nM
29 | CN1CCN(c2ncc(Cl)c(N3CC(C(=O)NC(C)(C)c4cnc5ccccn45)C3)n2)CC1 [Example 55] | 4.4 | – | – | half-life [4, 7]: 3.1 h; bioavailability [4, 8]: 38%; EC50 (BL-41 cells): 1070 nM; half-life at 1 µM (in vitro): 2.33 h; EC50 [3]: 64 nM
30 | CN1CCCN(c2ncc(Cl)c(N3CC(C(=O)NC(C)(C)c4cnc5ccccn45)C3)n2)CC1 [Example 57] | 2.2 | – | 3.5 | half-life [4, 7]: 6.6 h; bioavailability [4, 8]: 6%; EC50 (SU-DHL-10 cells): 203 nM; EC50 (BL-41 cells): 1250 nM; half-life at 1 µM (in vitro): 2.52 h; EC50 [3]: 49 nM
31 | C[C@H]1CN(c2ncc(Cl)c(N3CCC(C(=O)NC(C)(C)c4cnc5ccccn45)CC3)n2)CCN1C [Example 101, 1-{5-chloro-2-[(3S)-3,4-dimethylpiperazin-1-yl]pyrimidin-4-yl}-N-(2-{imidazo[1,2-a]pyridin-3-yl}propan-2-yl)piperidine-4-carboxamide] | 33 | – | 310 | half-life [4, 7]: 5.4 h; bioavailability [4, 8]: 32%; half-life at 1 µM (in vitro): 1.74 h; EC50 [3]: > 1000 nM
32 | O=C(NCc1nnc2ccccn12)C1CN(c2nc(N3CCCNCC3)ncc2Cl)C1 [Example 112] | – | > 10000 | 319 | –
